Test system: Clonic Seizures Caused by Pentylenetetrazole
Test: Protection against clonic seizures caused by pentylenetetrazole in rats
Format: in vivo
Details: oral; for ED50: Rattus norvegicus, 2% starch vehicle, groups of at least 5 rats, pentylenetetrazole 21 to 23 mg/kg i.v. at estimated time of peak effect, protection of 50% of animals (Litchfield and Wilcoxon), read-out: Median Effective Oral Dose ED50 (protection against clonic seizures caused by pentylenetetrazole); for effectiveness as anxiolytic agent relative to the respective dextrorotatory and racemic forms of the desmethyl prior art compound (Compounds 3 and 4): rats, from ED50 table
Protocol: The anti-anxiety properties of the active components of the present invention have been established in a test which indicates anxiolytic activity by a measure of protection from convulsions resulting from the administration of pentylenetetrazol. Graded dose levels of the dextro and racemic forms of the compound 1,2,3,11a-tetrahydro-10-mthyl-5H-pyrrolo[2,1-c] [1,4]benzodiazepin-5,11(10H)-dione are administered orally, in a 2% starch vehicle, to groups of at least 5 rats. At the estimated time of peak effect, the rats are treated intravenously with pentylenetetrazole at a dose of 21 to 23 mg./kg. of body weight. This dose is estimated to cause clonic seizures in 99% of unprotected rats. The effective dose of the test compound for protection of 50% of the animals is calculated by the method of J. T. Litchfield and F. Wilcoxon, Journal of Pharmacology and Experimental Therapeutics, 96, 99 (1949). The results are given in the table which follows in comparison with Librium (chlordiazepoxide), Valium (diazepam) and the dextro and racemic forms of 1,2,3,11 a-tetrahydro-5H-pyrrolo[2,1-c] [1,4]benzodiazepin-5,11(10H)-dione (U.S. Pat. No. 3,732,212) all of which were tested in exactly the same manner. It has been reported [R. T. Hill and D. R. Tedeschi, "Animal Testing and Screening Procedures in Evaluating Psychotropic Drugs" in An Introduction to Psychopharmacology, Eds. R. R. Rech and K. E. Moore, Raven Press, New York, pp. 237-288 (1971) that there is a high degree of correlation between antagonism of pentylenetetrazole seizures in rats and antianxiety effects in higher warm-blooded animals.

Row | Structure (SMILES) | ED50 [mg/kg] | effectiveness as anxiolytic agent relative to the respective dextrorotatory and racemic forms of the desmethyl prior art compound (Compounds 3 and 4)
1 | O=C1Nc2ccccc2C(=O)N2CCC[C@@H]12 [Compound 3, Dextro-1,2,3,11a-tetrahydro-5H-pyrrolo[2,1-c]-[1,4]-benzodiazepin-5,11(10H)-dione] | 35 | –
2 | CN1C(=O)[C@@H]2CCCN2C(=O)c2ccccc21 [Compound 1, Dextro-1,2,3,11a-tetrahydro-10-methyl-5H-pyrrolo[2,1-c][1,4]benzodiazepin-5,11(10H)-dione] | 10 | far more effective
3 | O=C1Nc2ccccc2C(=O)N2CCCC12 (racemic) [Compound 4, Racemic-1,2,3,11a-tetrahydro-5H-pyrrolo[2,1-c]-[1,4]benzodiazepin-5,11(10H)-dione] | 70 | –
4 | CN1C(=O)CN=C(c2ccccc2)c2cc(Cl)ccc21 [Compound 6, diazepam] | 1.8 | –
5 | CN1C(=O)C2CCCN2C(=O)c2ccccc21 (racemic) [Compound 2, Racemic-1,2,3,11a-tetrahydro-10-methyl-5H-pyrrolo[2,1-c][1,4]benzodiazepin-5,11(10H)-dione] | 20 | far more effective
6 | CNC1=Nc2ccc(Cl)cc2C(c2ccccc2)=[N+]([O-])C1 [Compound 5, chlordiazepoxide] | 2.5 | –

— patent publication US3968230A, “Compositions containing benzodiazepindiones and method of use” (American Cyanamid Company, priority 1975, dated 1976)
